Target: Prolyl hydroxylase EGLN2 (Homo sapiens, UniProt Q96KS0)
Assay: Inhibitory activity against purified fusion of maltose binding with PHD1 as enzyme and […]

Chain of Prolyl hydroxylase EGLN2 (Q96KS0 whole entry, the tested form may be a part): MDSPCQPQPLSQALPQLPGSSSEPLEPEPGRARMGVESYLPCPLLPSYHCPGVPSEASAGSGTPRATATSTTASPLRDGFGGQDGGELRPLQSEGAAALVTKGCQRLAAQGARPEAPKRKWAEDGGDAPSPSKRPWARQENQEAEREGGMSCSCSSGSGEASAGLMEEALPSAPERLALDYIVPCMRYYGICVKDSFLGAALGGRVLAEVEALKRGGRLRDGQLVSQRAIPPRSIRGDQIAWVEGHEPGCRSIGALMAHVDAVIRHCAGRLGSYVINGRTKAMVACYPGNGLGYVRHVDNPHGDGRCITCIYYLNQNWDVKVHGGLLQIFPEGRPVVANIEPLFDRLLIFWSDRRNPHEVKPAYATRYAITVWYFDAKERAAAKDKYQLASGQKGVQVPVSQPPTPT

Q: With `O=C(O)CC1CC(=O)N(O)C1=O` (racemic) as the compound, how does the IC50 read?
A: 1 mM
